In ChEMBL document CHEMBL1122006, “Comparison of quantitative structure-activity relationships of the inhibition of leukemia cells in culture with the inhibition of dihydrofolate reductase from leukemia cells and other cell types” (1982):

System: L5178Y
Experiment: Concentration required for inhibition of murine leukemia L5178Y cells
Type: functional, Mus musculus

SMILES: CC(=O)Nc1cccc(OCc2cccc(N3C(N)=NC(N)=NC3(C)C)c2)c1
- Log 1/C: 8.66

SMILES: CC1(C)N=C(N)N=C(N)N1c1cccc(COc2cccc(C#N)c2)c1
- Log 1/C: 8.09

SMILES: CC1(C)N=C(N)N=C(N)N1c1cccc(COc2cccc(NC(=N)S)c2)c1
- Log 1/C: 8.08

SMILES: Cc1cccc(OCc2cccc(N3C(N)=NC(N)=NC3(C)C)c2)c1
- Log 1/C: 8.16

SMILES: CCc1cccc(OCc2cccc(N3C(N)=NC(N)=NC3(C)C)c2)c1
- Log 1/C: 8.11

SMILES: CC(C)c1cccc(OCc2cccc(N3C(N)=NC(N)=NC3(C)C)c2)c1
- Log 1/C: 8.13

SMILES: CC1(C)N=C(N)N=C(N)N1c1cccc(CNc2cc(C(N)=O)cc(C(N)=O)c2)c1
- Log 1/C: 7.01

SMILES: CC1(C)N=C(N)N=C(N)N1c1cccc(OCc2ccccc2)c1
- Log 1/C: 7.78

SMILES: CN(Cc1cnc2nc(N)nc(N)c2n1)c1ccc(C(=O)N[C@@H](CCC(=O)O)C(=O)O)cc1 [METHOTREXATE]
- Log 1/C: 8.89

SMILES: CC1(C)N=C(N)N=C(N)N1c1cccc(COc2cccc(NC(N)=O)c2)c1
- Log 1/C: 8.18

SMILES: Cc1cccc(N2C(N)=NC(N)=NC2(C)C)c1
- Log 1/C: 8.01

SMILES: CC1(C)N=C(N)N=C(N)N1c1cccc(Br)c1
- Log 1/C: 8.42

SMILES: CC1(C)N=C(N)N=C(N)N1c1cccc(OCc2ccc(Cl)c(Cl)c2)c1
- Log 1/C: 7.15

SMILES: CC1(C)N=C(N)N=C(N)N1c1cccc(OCCCCOc2ccccc2)c1
- Log 1/C: 6.97

SMILES: CC(C)(C)c1cccc(OCc2cccc(N3C(N)=NC(N)=NC3(C)C)c2)c1
- Log 1/C: 7.3

SMILES: CCCCCCCCCOc1cccc(N2C(N)=NC(N)=NC2(C)C)c1
- Log 1/C: 6.93

SMILES: CC(C)(C)c1cccc(N2C(N)=NC(N)=NC2(C)C)c1
- Log 1/C: 7.59

SMILES: CCCCCCCCCCCCOc1cccc(N2C(N)=NC(N)=NC2(C)C)c1
- Log 1/C: 6.41

SMILES: CC1(C)N=C(N)N=C(N)N1c1cccc([N+](=O)[O-])c1
- Log 1/C: 7.66

SMILES: CC1(C)N=C(N)N=C(N)N1c1cccc(COc2cccc(Cl)c2)c1
- Log 1/C: 8.1

SMILES: CC1(C)N=C(N)N=C(N)N1c1ccc(OCc2cccc(C(N)=O)c2)c(Cl)c1
- Log 1/C: 7.53

SMILES: COc1cccc(OCc2cccc(N3C(N)=NC(N)=NC3(C)C)c2)c1
- Log 1/C: 8.02

SMILES: CC1(C)N=C(N)N=C(N)N1c1cccc(C(N)=O)c1
- Log 1/C: 6.1

SMILES: CC1(C)N=C(N)N=C(N)N1c1cccc(OCCOc2cccc(C(F)(F)F)c2)c1
- Log 1/C: 7.37

SMILES: CC1(C)N=C(N)N=C(N)N1c1cccc(F)c1
- Log 1/C: 7.94

SMILES: CC1(C)N=C(N)N=C(N)N1c1cccc(C(O)c2ccccc2)c1 (stereo not drawn)
- Log 1/C: 6.41

SMILES: CC1(C)N=C(N)N=C(N)N1c1cccc(COc2ccccc2)c1
- Log 1/C: 8.2

SMILES: CCOC(=O)c1cccc(N2C(N)=NC(N)=NC2(C)C)c1
- Log 1/C: 8.13

SMILES: CC1(C)N=C(N)N=C(N)N1c1cccc(OCCOc2ccccc2)c1
- Log 1/C: 7.34

SMILES: CC1(C)N=C(N)N=C(N)N1c1cccc(OCCCCOc2cccc(C(F)(F)F)c2)c1
- Log 1/C: 7.14

SMILES: CC1(C)N=C(N)N=C(N)N1c1cccc(I)c1
- Log 1/C: 8.4

SMILES: CC1(C)N=C(N)N=C(N)N1c1cccc(COc2cccc(CO)c2)c1
- Log 1/C: 8.32

SMILES: CC(=O)c1cccc(N2C(N)=NC(N)=NC2(C)C)c1
- Log 1/C: 6.96
